The text below walks through data of patent US10220024B2, “Method of inhibiting cancer cell, method for detecting cancer cell, and system for detecting cancer cell” (CANON KABUSHIKI KAISHA, priority 2012, dated 2019).

Molecules are shown by their SMILES. Where two headings read alike, the source gives them in different places.

In assay [1] the test system is Human pancreas cancer cells, KLM-1. The assay is described as follows: Cancer cell inhibitory (growth suppressive) action against pancreatic cancer cells, CellTiter-Glo viable cell count. The settings on record: KLM1, KLM-1, 10 μg/mL, 24 hours. It is filed as cell-based. As for the experimental part:
Observation on cancer cell inhibitory (growth suppressive) action against pancreatic cancer cells Human pancreas cancer cells, KLM-1, were pre-cultured in RPMI1640 medium containing 10% FBS at 37° C. in a 5% CO2 ambient. Thereafter, 4,000 cells were seeded per well of a 96-well plate and further cultured for 24 hours. Subsequently, Compound (1) was added to the medium so as to obtain a final concentration of 10 μg/mL and cultured at 37° C. for 24 hours in a 5% CO2 ambient. The cultured cells were analyzed for viable cell count according to CellTiter-Glo Luminescent Cell Viability Assay (manufactured by Promega KK.). As a reference, the number of cells cultured in a medium containing a 0.1% dimethylsulfoxide solution (hereinafter, simply referred to as DMSO) in place of a medium containing Compound (1), in the aforementioned operation, was regarded (100%).
Viable cell count was analyzed in the same manner as in Experimental Example 1 except that Compound (1) of Experimental Example 1 was changed to compounds shown in Table 2.
Viable cell count was analyzed in the same manner as in Experimental Example 1 except that Compound (1) was changed to comparative compounds 1 to 4.
Viable cell counts of Experimental Examples 1 to 7 and Comparative Examples 1 to 4 were analyzed to obtain growth rates.
Evaluation of cancer cell inhibition against the pancreatic cancer cells (KLM-1) (growth suppression) was made based on the following criteria. Note that the growth rate in Examples herein is a numerical value of the number of cells obtained after culture relative to the number of cells (regarded as 100) grown in a medium containing 0.1% DMSO. Evaluation of cancer cell inhibition against the pancreatic cancer cells (KLM-1) was made as follows. • A: Cancer cell growth rate is less than 20% (cancer cell inhibitory (growth suppressive) effect is extremely high) • B: Cancer cell growth rate is 20% or more and less than 50% (cancer cell inhibitory (growth suppressive) effect is high) • C: Cancer cell growth rate is 50% or more (cancer cell inhibitory (growth suppressive) effect is low)

For assay [2], the system named is K562 ALDH (−) fraction (general cancer cells). As to the kind of experiment: Cancer stem-cell selective inhibitory action against chronic myelocytic leukemia cells, ALDH (−) fraction, CellTiter-Glo. The following applies: Homo sapiens, 24 hours, relative to 0.1% DMSO, read-out: ALDH(−) (growth rate). In kind it is cell-based, Human. Summed up:
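ALDEFLUOR-sorted K562 fractions, ALDH (+) with ≥80% stem cells and ALDH (−), cultured 24 h at 37° C. with compound at the stated final concentrations. Viable cells counted by CellTiter-Glo luminescence. Growth is expressed relative to 0.1% DMSO control […], and scored as ALDH (+) and ALDH (+)/ALDH (−) categories.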

Turning to `COc1ccc(N2c3ccc(/C=C/C4=[N+](C)c5ccccc5C4(C)C)cc3C3CCCC32)cc1` (centres unmarked) [Compound 11], the activity at 10 µg/mL in assay [1] (read-out: Evaluation (cancer cell growth rate)) was under 20%; in assay [1] (relative to 0.1% DMSO (100), read-out: Cancer cell growth rate (%)), 2.6%. Also, the activity at 0.05 µg/mL in assay [2] (0.05 μg/mL) amounted to 77%. The activity at 0.5 µg/mL in assay [2] (0.5 μg/mL) was determined as 49%. The activity at 1 µg/mL in assay [2] (1 μg/mL) worked out at 22%.
